In patent publication US12581252B2, “Substituted pyrrolo[3,4-b]pyridines as PI3K-α inhibitors” (Relay Therapeutics, Inc., priority 2020, dated 2026):

The compounds below were run against H1047R PIK3CA enzyme (Homo sapiens, UniProt P42336, H1047R) (assay: ADP-Glo Biochemical PIK3CA Kinase Assay).
Description: Compounds to be assayed were plated in 16 doses of 1:2 serial dilutions (20 nL volume each well) on a 1536-well plate, and the plate warmed to room temperature. […] To the well was added 1 μL of 200 μM ATP and 20 μM of diC8-PIP2 in Substrate Assay Buffer (50 mM HEPES pH7.4, 50 mM NaCl, 5 mM DTT and 0.03% CHAPS) to start the reaction, and the plate was shaken for 10 seconds, then spun briefly at 1500 rpm, and then incubated for 60 minutes at room temperature. The reaction was stopped by adding 2 μL of ADP-Glo reagent (Promega), and spinning briefly at 1500 rpm, and then incubating for 40 minutes. ADP-Glo Detection reagent (Promega) was added and the plate spun briefly at 1500 rpm, then incubated for 30 minutes.

H1047R PIK3CA enzyme, sequence (P42336 whole entry H1047R): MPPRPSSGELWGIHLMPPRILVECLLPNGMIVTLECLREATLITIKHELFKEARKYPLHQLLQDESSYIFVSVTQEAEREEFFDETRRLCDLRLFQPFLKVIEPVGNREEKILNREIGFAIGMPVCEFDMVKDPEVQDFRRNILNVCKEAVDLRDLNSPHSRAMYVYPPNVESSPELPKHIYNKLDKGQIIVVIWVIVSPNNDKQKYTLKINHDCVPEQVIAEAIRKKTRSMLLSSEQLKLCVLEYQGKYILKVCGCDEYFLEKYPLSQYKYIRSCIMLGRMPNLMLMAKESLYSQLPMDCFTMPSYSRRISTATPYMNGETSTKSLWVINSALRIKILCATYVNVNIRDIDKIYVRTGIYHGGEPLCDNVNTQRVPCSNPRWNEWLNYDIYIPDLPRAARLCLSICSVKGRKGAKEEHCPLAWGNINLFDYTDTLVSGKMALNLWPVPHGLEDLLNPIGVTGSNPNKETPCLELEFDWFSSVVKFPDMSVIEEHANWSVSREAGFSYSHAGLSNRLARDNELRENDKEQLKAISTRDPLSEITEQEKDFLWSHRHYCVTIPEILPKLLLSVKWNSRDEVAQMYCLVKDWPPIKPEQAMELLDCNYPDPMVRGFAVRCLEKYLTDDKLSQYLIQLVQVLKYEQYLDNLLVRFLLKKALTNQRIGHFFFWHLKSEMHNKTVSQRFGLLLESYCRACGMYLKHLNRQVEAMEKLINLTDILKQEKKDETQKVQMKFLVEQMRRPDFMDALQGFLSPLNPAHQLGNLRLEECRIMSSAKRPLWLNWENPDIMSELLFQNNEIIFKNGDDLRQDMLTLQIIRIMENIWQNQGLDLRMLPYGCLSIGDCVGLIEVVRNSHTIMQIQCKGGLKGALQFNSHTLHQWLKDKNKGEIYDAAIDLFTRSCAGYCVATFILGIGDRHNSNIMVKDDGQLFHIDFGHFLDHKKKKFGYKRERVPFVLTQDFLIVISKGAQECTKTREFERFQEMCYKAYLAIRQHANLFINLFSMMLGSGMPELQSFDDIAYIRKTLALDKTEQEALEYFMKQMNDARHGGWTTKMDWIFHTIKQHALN
H1047R PIK3CA enzyme, sequence (P27986 whole entry partner): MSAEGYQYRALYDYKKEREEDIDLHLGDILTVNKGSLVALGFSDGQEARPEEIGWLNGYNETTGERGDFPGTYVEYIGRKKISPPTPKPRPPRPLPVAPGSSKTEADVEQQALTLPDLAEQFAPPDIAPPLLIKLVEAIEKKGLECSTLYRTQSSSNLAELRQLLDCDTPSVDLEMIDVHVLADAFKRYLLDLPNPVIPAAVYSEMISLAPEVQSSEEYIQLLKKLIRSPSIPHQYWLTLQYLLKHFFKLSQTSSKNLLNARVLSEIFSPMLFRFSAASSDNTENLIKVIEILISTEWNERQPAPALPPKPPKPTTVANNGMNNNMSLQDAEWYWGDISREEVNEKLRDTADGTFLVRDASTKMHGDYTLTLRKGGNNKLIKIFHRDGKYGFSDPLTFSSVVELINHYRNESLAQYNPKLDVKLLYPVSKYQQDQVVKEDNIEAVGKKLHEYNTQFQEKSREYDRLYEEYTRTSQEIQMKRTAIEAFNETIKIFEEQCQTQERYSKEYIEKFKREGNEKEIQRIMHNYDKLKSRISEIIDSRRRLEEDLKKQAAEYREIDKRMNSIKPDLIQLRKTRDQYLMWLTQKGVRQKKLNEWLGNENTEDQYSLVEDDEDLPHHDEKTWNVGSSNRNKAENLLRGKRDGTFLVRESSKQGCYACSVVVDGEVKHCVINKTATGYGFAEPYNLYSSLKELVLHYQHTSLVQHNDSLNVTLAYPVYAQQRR

IC50 [nM]	SMILES
100 to 500	O=C(Nc1cc(Br)cc2c1C(c1cc(F)ccc1Cl)NC2=O)NC12CC3CC(CC(C3)C1)C2 (centres unmarked) [Compound I-1257]
≤ 100	O=C(Nc1cccc2c1C(c1cc(F)ccc1Cl)NC2=O)c1cc(F)c(F)c(C(F)(F)F)c1 (centres unmarked) [Compound I-580]
100 to 500	O=C1N[C@@H](c2cc(F)ccc2Cl)c2c(NC(=O)N3C[C@H](O)c4cc(F)ccc43)cc(Cl)cc21 (single isomer, unassigned) [Compound I-2400]
1000 to 10000	O=C1NC(c2cc(F)ccc2Cl)c2c(NC(=O)N3C[C@@H](C(F)(F)F)[C@@H](O)C3)cc(-c3ccc4ncnn4c3)cc21 (single isomer, unassigned) [Compound I-1978]
1000 to 10000	O=C(Nc1cc(Br)cc2c1[C@@H](c1cc(Cl)cc(F)c1F)NC2=O)c1cc(F)cc(C(F)(F)F)c1 [Compound I-787]
100 to 500	O=C(Nc1cc(Br)cc2c1[C@H](c1cccc(F)c1F)NC2=O)c1cc(F)cc(C(F)(F)F)c1 [Compound I-682]
1000 to 10000	O=C(Nc1cc(Br)cc2c1[C@@H](c1cc(F)ccc1F)NC2=O)c1cc(F)cc(C(F)(F)F)c1 [Compound I-671]
1000 to 10000	CN(C)c1cc(NC(=O)N2C[C@@](O)(C(F)(F)F)c3cc(F)ccc32)c2c(n1)C(=O)N[C@H]2c1cc(F)ccc1Cl (single isomer, unassigned) [Compound I-2691]
≤ 100	O=C(Nc1cc(NC(=O)N2CC(F)(F)C2)cc2c1C(c1cc(F)ccc1Cl)NC2=O)c1cc(F)cc(C(F)(F)F)c1 (centres unmarked) [Compound I-513]
≤ 100	[2H]C([2H])(c1cc(NC(=O)c2cc(F)cc(C(F)(F)F)c2)c2c(c1)C(=O)NC2c1cc(F)ccc1Cl)S(C)(=O)=O (centres unmarked) [Compound I-1551]
≤ 100	O=C(Nc1cc(-c2ccc3ncnn3n2)cc2c1C(c1cc(F)ccc1Cl)NC2=O)c1cc(F)cc(C(F)(F)F)c1 (centres unmarked) [Compound I-1458]
100 to 500	O=C1NC(c2ccccc2Cl)c2c(NC(=O)c3csc4ccccc34)ccnc21 (centres unmarked) [Compound I-9]
1000 to 10000	O=C(Nc1cc(Br)cc2c1C(c1cc(F)ccc1Cl)NC2=O)c1cccc(F)c1 (centres unmarked) [Compound I-526]
≤ 100	CCCNc1cc(NC(=O)c2cc(F)cc(C(F)(F)F)c2)c2c(n1)C(=O)NC2c1cc(F)ccc1Cl (centres unmarked) [Compound I-319]
10000 to 100000	O=C(Nc1cccc2c1[C@@H](C1CCC(F)(F)CC1)NC2=O)c1cc(F)cc(C(F)(F)F)c1 [Compound I-2072]
100 to 500	O=C(Nc1ccc(F)cc1C(F)(F)F)Nc1cc(Br)cc2c1C(c1cc(F)ccc1Cl)NC2=O (centres unmarked) [Compound I-1050]
≤ 100	N#C[C@H]1C[C@@H](c2cc(NC(=O)c3cc(F)cc(C(F)(F)F)c3)c3c(c2)C(=O)N[C@@H]3c2cc(F)ccc2Cl)C1 (single isomer, unassigned) [Compound I-1327]
100 to 500	Cn1cc(-c2cc(NC(=O)c3nsc4ccccc34)c3c(n2)C(=O)N[C@@H]3c2ccccc2Cl)cn1 [Compound I-113]
1000 to 10000	O=C1N[C@H](c2ccccc2Cl)c2c(NC(=O)N3C[C@](O)(C(F)(F)F)c4cc(F)ccc43)cccc21 (single isomer, unassigned) [Compound I-2687]
1000 to 10000	O=C(Nc1cccc2c1C(c1cc(F)ccc1Cl)NC2=O)c1cscc1C(F)(F)F (centres unmarked) [Compound I-2361]

IC50 [nM]	SMILES
≤ 100	Cc1ncc(-c2cc(NC(=O)c3cc(F)cc(Cl)c3)c3c(n2)C(=O)NC3c2cc(F)ccc2Cl)s1 (centres unmarked) [Compound I-457]
≤ 100	CO[C@@H]1CC[C@H]1Nc1cc(NC(=O)c2cc(F)cc(C(F)(F)F)c2)c2c(c1)C(=O)NC2c1cc(F)ccc1Cl (mixture of isomers) [Compound I-780]
≤ 100	CN1C[C@@H](Nc2cc(NC(=O)c3cc(F)cc(C(F)(F)F)c3)c3c(c2)C(=O)NC3c2cc(F)ccc2Cl)CC1=O (single isomer, unassigned) [Compound I-375]
10000 to 100000	Cc1ccccc1C1NC(=O)c2cccc(Nc3cc4ccccc4nn3)c21 (centres unmarked) [Compound I-27]
10000 to 100000	N#CCC(=O)Nc1cc(-c2ccc3ncnn3c2)cc2c1C(c1cc(F)ccc1Cl)NC2=O (centres unmarked) [Compound I-2000]
10000 to 100000	O=C(Nc1cc(Br)cc2c1C(c1cc(F)ccc1Cl)NC2=O)c1cncc(F)c1 (centres unmarked) [Compound I-958]
≤ 100	Cc1ccccc1[C@@H]1NC(=O)c2c(C(N)=O)ccc(NC(=O)c3cc(F)cc(C(F)(F)F)c3)c21 [Compound I-508]
10000 to 100000	O=C1NC(c2cc(F)ccc2Cl)c2c(NC(=O)N3CCCCc4ccccc43)cccc21 (centres unmarked) [Compound I-2306]
1000 to 10000	NC(=O)c1cnccc1-c1cc(NC(=O)c2cc(F)cc(Cl)c2)c2c(n1)C(=O)NC2c1cc(F)ccc1Cl (centres unmarked) [Compound I-507]
10000 to 100000	Cc1ccccc1[C@H]1NC(=O)c2nccc(NC(=O)N3CCc4c(F)cc(F)cc43)c21 [Compound I-230]
≤ 100	Nc1ncc(-c2cc(NC(=O)c3cc(F)cc(C(F)(F)F)c3)c3c(c2)C(=O)NC3c2cc(F)ccc2Cl)cn1 (centres unmarked) [Compound I-885]
100 to 500	COc1ccccc1-c1cc(NC(=O)c2cc(F)cc(C(F)(F)F)c2)c2c(c1)C(=O)NC2c1cc(F)ccc1Cl (centres unmarked) [Compound I-1197]
10000 to 100000	COc1ccc2c(C(=O)Nc3cccc4c3C(c3ccccc3C)NC4=O)csc2c1 (centres unmarked) [Compound I-79]
1000 to 10000	O=C1N[C@H](c2cc(F)ccc2Cl)c2c(NC(=O)N3C[C@](O)(C(F)(F)F)c4cc(F)ccc43)ccc(-n3nccn3)c21 (single isomer, unassigned) [Compound I-2526]
100 to 500	O=C(Nc1cc(Oc2ccncn2)cc2c1C(c1cc(F)ccc1Cl)NC2=O)c1cc(F)cc(C(F)(F)F)c1 (centres unmarked) [Compound I-1052]
1000 to 10000	Cc1ccccc1C1NC(=O)c2cccc(NC(=O)c3cc(F)cc(C(F)F)c3)c21 (centres unmarked) [Compound I-112]
10000 to 100000	NC1(C(=O)Nc2cc(-c3ccc4ncnn4c3)cc3c2C(c2cc(F)ccc2Cl)NC3=O)CCCC1 (centres unmarked) [Compound I-1812]
1000 to 10000	C[C@@H](C#N)Cn1cc(-c2cc(NC(=O)N3C[C@H](O)c4cc(F)ccc43)c3c(c2)C(=O)N[C@H]3c2cc(F)ccc2Cl)cn1 (single isomer, unassigned) [Compound I-2499]
1000 to 10000	CC1(Cc2cc(NC(=O)N3C[C@@](O)(C(F)(F)F)c4cc(F)ccc43)c3c(c2)C(=O)N[C@@H]3c2cc(F)ccc2Cl)COC1 (single isomer, unassigned) [Compound I-2658]
≤ 100	CC(C)(O)c1cc(NC(=O)c2cc(F)cc3cc[nH]c23)c2c(c1)C(=O)NC2c1cc(F)ccc1Cl (centres unmarked) [Compound I-495]

IC50 [nM]	SMILES
10000 to 100000	O=C1NC(c2cc(F)ccc2Cl)c2c(NC(=O)N3CC4C5CCC(C5)C43)cccc21 (centres unmarked) [Compound I-2429]
100 to 500	Cn1ccnc1-c1cc(NC(=O)c2cc(F)cc(C(F)(F)F)c2)c2c(c1)C(=O)NC2c1cc(F)ccc1Cl (racemic) [Compound I-1193]
1000 to 10000	O=C(Nc1cccc2c1C(c1cc(F)ccc1Cl)NC2=O)c1cc(Cl)cc2c1OCC2 (centres unmarked) [Compound I-596]
10000 to 100000	O=C(NCc1ccccc1)c1cc(Br)cc2c1C(c1cc(F)ccc1Cl)NC2=O (centres unmarked) [Compound I-1979]
1000 to 10000	NCc1cc(NC(=O)N2C[C@](O)(C(F)F)c3cc(F)ccc32)c2c(c1)C(=O)N[C@@H]2c1cc(F)ccc1Cl (single isomer, unassigned) [Compound I-2695]
10000 to 100000	COC1CCCC(C(=O)Nc2cc(-c3ccc4ncnn4c3)cc3c2C(c2cc(F)ccc2Cl)NC3=O)C1 (mixture of isomers) [Compound I-2037]
100 to 500	O=C(Nc1cc(NC(=O)C2CNC2)cc2c1C(c1cc(F)ccc1Cl)NC2=O)c1cc(F)cc(C(F)(F)F)c1 (centres unmarked) [Compound I-389]
10000 to 100000	O=C1NC(c2cc(F)ccc2Cl)c2c(NC3CCS(=O)(=O)CC3)cc(-c3ccc4ncnn4c3)cc21 (centres unmarked) [Compound I-2010]
10000 to 100000	CC[C@H](CC(=O)Nc1cccc2c1[C@@H](c1cc(F)ccc1Cl)NC2=O)[C@@H](C)C(F)(F)F (single isomer, unassigned) [Compound I-2338]
100 to 500	O=C(Nc1cc(-c2ccn3nc(Cl)nc3c2)cc2c1[C@@H](c1cc(F)ccc1Cl)NC2=O)c1cc(F)cc(C(F)(F)F)c1 [Compound I-1606]
1000 to 10000	O=C(Nc1cc(-c2ccc3nccn3n2)cc2c1[C@@H](c1cc(F)ccc1Cl)NC2=O)c1cc(F)cc(C(F)(F)F)c1 [Compound I-1331]
1000 to 10000	O=C1N[C@H](c2cc(F)ccc2Cl)c2c(NC(=O)N3C[C@](O)(C(F)(F)F)c4cc(F)ccc43)ccc(-n3cccn3)c21 (single isomer, unassigned) [Compound I-2494]
≤ 100	CC(C)(O)c1cc(NC(=O)N2CCc3ccccc32)c2c(c1)C(=O)NC2c1cc(F)ccc1Cl (centres unmarked) [Compound I-308]
1000 to 10000	O=C(Nc1cc(Br)cc2c1C(c1cc(F)ccc1Cl)NC2=O)c1cc(C(F)(F)F)ccc1F (centres unmarked) [Compound I-515]
≤ 100	CC(c1cc(NC(=O)c2cc(F)cc(C(F)(F)F)c2)c2c(c1)C(=O)NC2c1cc(F)ccc1Cl)S(C)(=O)=O (centres unmarked) [Compound I-1292]
100 to 500	O=C(O)Cc1ccccc1-c1cc(NC(=O)c2cc(F)cc(C(F)(F)F)c2)c2c(c1)C(=O)NC2c1cc(F)ccc1Cl (centres unmarked) [Compound I-1265]
10000 to 100000	O=C1N[C@H](c2cc(F)ccc2Cl)c2c(NC(=O)N3C[C@](O)(C(F)F)c4ccccc43)cccc21 (single isomer, unassigned) [Compound I-2486]
100 to 500	[2H]c1nc2ccc(-c3cc(NC(=O)c4cc(F)cc(C(F)(F)F)c4)c4c(c3)C(=O)N[C@@H]4c3cc(F)ccc3Cl)cn2n1 (stereo in doubt) [Compound I-1786]
≤ 100	Cc1cnccc1-c1cc(NC(=O)c2cc(F)cc(C(F)(F)F)c2)c2c(c1)C(=O)NC2c1cc(F)ccc1Cl (centres unmarked) [Compound I-890]
